In publication PMC12516557, “Isolation and characterization of peroxidase from potato leaves Solanum tuberosum: Application in glucose diagnostic kit” (Journal of Genetic Engineering & Biotechnology, 2025):

System: T1, potato leaves peroxidase (PLPOD)
T1 construct: gene POD; native enzyme from mature leaves (Nile Delta, Egypt); CM-cellulose and Sephacryl S-300; 64 kDa by gel filtration; 3 activity bands ~40-65 kDa on SDS-PAGE
Experiment: guaiacol oxidation at […] nm, Lineweaver-Burk plot
Format: biochemical, Solanum tuberosum
Details: co-substrate H2O2; sodium acetate buffer pH 5.6 (general assay); mixture of isoenzymes; discussion b65 prints 0.066 mM

Km: 67 µM
Compound: COc1ccccc1O [guaiacol]
